In brackets after ≈: the same amount, converted by molar mass.
Assay: DPPH radical scavenging assay
Assay type: biochemical
Conditions: DPPH radical scavenging activity in 30 minutes
Description: FIGS. 4A through 4D show lipid peroxidation and DPPH (1,1-diphenyl-2-picrylhydrazyl) analysis result which were obtained by measuring the antioxidant activity of Comparative Example 1 (SBR), Comparative Example 2 (MOB) and Present Example 1 (GenoTX-407). […] As shown in the upper left graph of FIG. 4, after exposure to FeCl3 (50 μM), TBARS (thiobarbituric acid reactive substances) level increased (74%).

For `O=C1O[C@H]([C@@H](O)CO)C(O)=C1O` [ascorbic acid], the “EC50, DPPH” value was 14.38 µg/mL (≈ 81.6 µM).
